The text below walks through data of patent publication US20150315218A1, “SALTS OF PRODRUGS OF PIPERAZINE AND SUBSTITUTED PIPERIDINE ANTIVIRAL AGENTS” (Bristol-Myers Squibb Company, priority 2004, published 2015).

Entries after “also recorded” stand apart in the source; their conditions may differ. Counter-ions that a name gives are not always drawn.

A short description of data set [1]: Single-dose oral toxicokinetic study of prodrugs in rats. It is filed as in vivo, rat. Conditions: for half-life / AUC / Cmax: plasma; for half-life / Cmax / C24 h (μM): analyte = label; for half-life: read-out: T½ (converted); for AUC: read-out: AUC. In short, it runs like this: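 Plasma levels of prodrug and parent IVa were measured per rat over one day after one oral gavage dose, given as a water solution to groups of three males. Free-acid doses: Icb 5/25/200, Ibb 19/64/236, Iab 16/72/267 mg/kg; for Iab these equal 13/57/211 mg/kg of IVa.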

Data set [2] in a line: Single-dose toxicokinetic and tolerability study of prodrugs in dogs. It is filed as in vivo, dog. Put shortly:
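Female dogs (two/group) received prodrug Iab orally once daily at 24, 90 or 240 mg/kg (free acid) as aqueous solution or dry-filled capsules, one-week washouts between doses. Ibb and Icb given to one dog/sex/group as capsules, then aqueous 25 mg/kg or capsules 46 or 125 mg/kg BID. Clinical signs, body weight, food intake and plasma toxicokinetics monitored.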

Data set [3] is described as follows: IV and PO pharmacokinetic studies of prodrug salts (Iab, Ibb, Icb) in the monkey, with historical parent data. Conditions: male, cynomolgus monkey. Type of data set: in vivo, cynomolgus monkeys. In short, it runs like this:
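Each prodrug (Iab, Ibb, Icb) tested in three male cynomolgus monkeys, IV then PO in crossover with a two-week washout. For Iab, doses were 1.3 mg/kg IV over 5 min and 7.1 mg/kg oral gavage after overnight fast (free acid basis); blood drawn from predose up to 24 h.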

In the case of `COc1cnc(-n2cnc(C)n2)c2c1c(C(=O)C(=O)N1CCN(C(=O)c3ccccc3)CC1)cn2COP(=O)(O)O` [Icb, [3-[(4-benzoylpiperazin-1-yl)(oxo)acetyl]-4-methoxy-7-(3-methyl-1H-1,2,4-triazol-1-yl)-1H-pyrrolo[2,3-c]pyridin-1-yl]methyl dihydrogen phosphate, 2-amino-2-(hydroxymethyl)propane-1,3-diol salt (1:1)], in data set [1] (male, CD, rat, in vivo, 200 mg/kg), the “prodrug concentrations in plasma” value was 0.02 to 0.04 µM. For the same molecule, in data set [1] (rat, in vivo, 25 mg/kg), the prodrug in plasma entry is reported as “not detected”. Moreover, in data set [2] (both, dog, in vivo), the “Emesis (footnote 4)” value is “^4Emesis observed within 2 hours of dosing with capsule remnant present”, the “Emesis (footnote 5)” value is recorded as “^5Emesis observed within 2 hours of dosing with no capsule remnant” and the “levels of prodrug detected in some plasma samples” value is ≤ 100 nM. For the same molecule, the T1/2 in data set [3] (in vivo, iv, […]) amounted to 5.34 ± 1.86 min.
As to `COc1cnc(OC)c2c1c(C(=O)C(=O)N1CCN(C(=O)c3ccccc3)CC1)cn2COP(=O)(O)O` [Iab, {3-[(4-benzoylpiperazin-1-yl)(oxo)acetyl]-4,7-dimethoxy-1H-pyrrolo[2,3-c]pyridin-1-yl}methyl dihydrogen phosphate, L-lysine salt (1:1)], the half-life in data set [1] (CD, rat, male rats, Iab 16 mg/kg PO) is 38.4 min; in data set [1] (CD, rat, male rats, Iab 72 mg/kg PO), 22.2 min; in data set [1] (CD, rat, male rats, Iab 267 mg/kg PO), 2.7 min; in data set [3] (plasma, monkey, after IV prodrug, analyte = label, read-out: t1/2 (hr), IV (converted)), 1 h. Moreover, the AUC was 0.057 µM·h in data set [1] (CD, rat, male rats, Iab 267 mg/kg PO, AUC from zero to time of last quantifiable sample); 0.02 µM·h in data set [1] (male, CD, rat, po, 16 mg/kg); 0.049 µM·h in data set [1] (male, CD, rat, po, 72 mg/kg); 9.5 ± 0.38 µM·h in data set [3] (plasma, monkey, after IV prodrug (~1.1 mg/kg parent equivalent), analyte = label, read-out: AUCtot (μM · hr), IV). Moreover, the maximum concentration (Cmax) in data set [1] (CD, rat, male rats, single oral dose Iab 16 mg/kg (13 mg/kg IVa molar equiv.), water) was determined as 68 nM; in data set [1] (CD, rat, male rats, single oral dose Iab 72 mg/kg (57 IVa equiv.)), 95 nM; in data set [1] (CD, rat, male rats, single oral dose Iab 267 mg/kg (211 IVa equiv.)) it was 110 nM. Also, the “C24 h (μM)” value in data set [1] (male rats, Iab 16 mg/kg PO) is “<LLQ^1”; in data set [1] (male rats, Iab 72 mg/kg PO), “<LLQ”; in data set [1] (male rats, Iab 267 mg/kg PO), “<LLQ”. In addition, in data set [1] (rats, single oral dose of Iab), the “plasma AUC of the prodrug relative to that of the parent” value is ≤ 0.03%. The entries for the “percentage of estimated total dose lost in vomit” value in data set [2] (Dog #1201 (90 mg/kg Iab)), in data set [2] (Dog #2201 (240 mg/kg Iab)) and in data set [2] (Dog #2202 (240 mg/kg Iab)) were < 1%, “≈ 90%” and “≈ 9%”, respectively. Besides, the “clinical signs, body weight and food consumption” value in data set [2] (dogs, oral prodrug) was “Other than emesis, there were no clinical signs observed, and there no effects on body weight and food consumption”. The emesis entry in data set [2] (dogs, oral prodrug) is “Emesis was observed at about 30 minutes after dosing in both dogs given 90 mg/kg; also recorded: Emesis was observed in Dogs #1201, #2201, and #2202 about 1 hour after dosing”. In addition, the concentration at 1 h in data set [2] (female, dog, plasma, oral, dogs, 1 hour post dose, Iab 90-240 mg/kg phase, read-out: prodrug detected in plasma) lay within 5 to 49 nM. Also, the concentration at 2 h in data set [2] (female, dog, plasma, oral, dogs, 2 hours post dose, Iab 90-240 mg/kg phase, read-out: prodrug detected in plasma) lay in the range of 5 to 6 nM. Further, the “prodrug in the plasma samples” value in data set [2] (initial phase, Iab 24 or 90 mg/kg) is “not detected”. The concentration at 15 min in data set [3] (plasma, po, monkey, LLQ = 5 nM, read-out: prodrug detected in plasma after oral administration) amounted to 18 nM. In data set [3] (plasma, monkey, prodrug after IV administration, read-out: CLtot (mL/min/kg), IV), the clearance was found to be 4.4 mL/min/kg. The Vd in data set [3] (plasma, monkey, prodrug after IV administration, read-out: Vdss (L/kg), IV) came to 0.048 L/kg.
